Experimental data published in patent US7329652B2, “Diaminotriazole compounds useful as protein kinase inhibitors” (Vertex Pharamaceuticals Incorporated, priority 2004, dated 2008).
Where two headings read alike, the source gives them in different places.

Tests used:
JAK-2 enzyme = JAK-2 enzyme (Homo sapiens, UniProt O60674); assay: JAK2 inhibition assay (radiometric 33P filter assay); assay type: biochemical
Procedure, shortened: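 JAK-2 enzyme in 100 mM HEPES pH 7.4, 1 mM DTT, 10 mM MgCl2, 25 mM NaCl, 0.01% BSA, with final 12 μM [33P]ATP and 15 μM poly(Glu)4Tyr. Reactions ran 20 min at 25 °C and were stopped with TCA. 33P incorporation was counted after glass-fibre filtration.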

JAK3 = molecular target: T1, JAK3 (Homo sapiens, UniProt P52333); assay: JAK3 inhibition assay (radiometric 33P filter assay); assay type: biochemical
T1 sequence (P52333 1-1124): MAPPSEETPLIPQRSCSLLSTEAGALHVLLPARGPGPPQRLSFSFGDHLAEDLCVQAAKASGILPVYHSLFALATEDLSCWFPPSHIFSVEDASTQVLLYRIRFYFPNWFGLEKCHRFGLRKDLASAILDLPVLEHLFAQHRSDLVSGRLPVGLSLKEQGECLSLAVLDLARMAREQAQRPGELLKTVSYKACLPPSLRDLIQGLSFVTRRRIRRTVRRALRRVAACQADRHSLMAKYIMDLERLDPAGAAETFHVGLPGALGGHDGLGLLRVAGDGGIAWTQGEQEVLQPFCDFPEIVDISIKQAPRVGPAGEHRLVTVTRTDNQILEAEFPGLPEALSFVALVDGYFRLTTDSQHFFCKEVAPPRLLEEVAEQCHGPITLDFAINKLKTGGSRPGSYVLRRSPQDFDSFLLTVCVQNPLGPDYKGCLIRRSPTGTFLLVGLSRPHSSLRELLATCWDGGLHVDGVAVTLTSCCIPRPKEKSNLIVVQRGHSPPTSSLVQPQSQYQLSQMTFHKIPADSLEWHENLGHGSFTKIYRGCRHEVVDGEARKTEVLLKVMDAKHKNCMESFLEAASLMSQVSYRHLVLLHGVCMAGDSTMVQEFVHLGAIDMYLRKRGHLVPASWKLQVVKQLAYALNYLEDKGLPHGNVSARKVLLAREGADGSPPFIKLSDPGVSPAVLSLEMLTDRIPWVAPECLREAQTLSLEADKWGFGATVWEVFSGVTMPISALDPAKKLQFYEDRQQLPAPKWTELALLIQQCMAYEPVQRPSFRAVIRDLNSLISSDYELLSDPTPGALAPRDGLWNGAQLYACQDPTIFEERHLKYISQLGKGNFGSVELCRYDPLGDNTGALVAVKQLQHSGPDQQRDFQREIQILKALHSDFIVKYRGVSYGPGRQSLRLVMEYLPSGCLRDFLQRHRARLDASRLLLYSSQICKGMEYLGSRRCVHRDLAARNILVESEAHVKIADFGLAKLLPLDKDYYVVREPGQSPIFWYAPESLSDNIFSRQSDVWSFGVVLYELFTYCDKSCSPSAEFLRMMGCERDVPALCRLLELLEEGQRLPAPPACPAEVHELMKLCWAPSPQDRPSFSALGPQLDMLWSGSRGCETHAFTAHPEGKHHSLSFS
Procedure, shortened: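 Final conditions were 1 nM JAK3, 5 μM ATP (200 uCi/μmole) and 1 μM poly(Glu)4Tyr in 100 mM HEPES pH 7.4, 10 mM MgCl2, 25 mM NaCl, 1 mM DTT and 0.01% BSA. After 20 min at 25 °C the reaction was stopped with TCA. 33P incorporation was counted after glass-fibre filtration.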

[1] = 15 μM poly(Glu)4Tyr, 12 μM ATP, read-out: JAK2 inhibition data (Ki)
[2] = 1 μM poly(Glu)4Tyr, 5 μM ATP, 1 nM JAK3, 25° C., read-out: JAK3 inhibition data (Ki)

Chain of JAK-2 enzyme (O60674 whole entry, species assumed): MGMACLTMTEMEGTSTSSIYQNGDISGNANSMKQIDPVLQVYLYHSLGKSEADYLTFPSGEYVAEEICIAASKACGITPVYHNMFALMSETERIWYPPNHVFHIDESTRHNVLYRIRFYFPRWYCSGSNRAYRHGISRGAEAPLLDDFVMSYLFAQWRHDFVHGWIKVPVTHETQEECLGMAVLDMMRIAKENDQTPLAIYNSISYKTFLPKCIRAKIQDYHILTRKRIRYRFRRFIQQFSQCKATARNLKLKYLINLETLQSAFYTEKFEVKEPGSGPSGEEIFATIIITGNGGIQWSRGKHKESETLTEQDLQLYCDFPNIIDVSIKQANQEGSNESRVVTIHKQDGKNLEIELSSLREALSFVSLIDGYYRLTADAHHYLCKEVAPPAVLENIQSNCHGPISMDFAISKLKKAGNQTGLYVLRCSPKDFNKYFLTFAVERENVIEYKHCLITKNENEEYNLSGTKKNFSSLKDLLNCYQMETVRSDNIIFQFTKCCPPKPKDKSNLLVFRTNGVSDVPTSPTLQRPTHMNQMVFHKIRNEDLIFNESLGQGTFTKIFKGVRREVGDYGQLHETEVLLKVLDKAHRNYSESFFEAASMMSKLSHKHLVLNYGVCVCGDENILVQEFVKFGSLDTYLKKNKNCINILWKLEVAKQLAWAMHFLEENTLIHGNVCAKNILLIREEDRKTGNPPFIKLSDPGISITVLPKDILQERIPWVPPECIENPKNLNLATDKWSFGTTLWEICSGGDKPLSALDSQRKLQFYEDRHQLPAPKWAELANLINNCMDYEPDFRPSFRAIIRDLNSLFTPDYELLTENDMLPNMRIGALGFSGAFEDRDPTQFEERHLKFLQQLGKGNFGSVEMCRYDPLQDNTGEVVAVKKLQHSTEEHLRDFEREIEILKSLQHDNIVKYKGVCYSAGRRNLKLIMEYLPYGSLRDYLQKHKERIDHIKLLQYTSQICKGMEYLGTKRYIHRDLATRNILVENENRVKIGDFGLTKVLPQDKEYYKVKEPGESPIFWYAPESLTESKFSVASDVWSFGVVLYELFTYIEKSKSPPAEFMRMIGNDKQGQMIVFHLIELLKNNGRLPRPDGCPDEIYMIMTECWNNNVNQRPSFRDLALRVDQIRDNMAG

Row | SMILES | Ki (JAK-2 enzyme; [1]) [nM] | Ki (JAK3; [2]) [nM] | Ki (JAK-2 enzyme) [nM] | Ki (JAK3) [nM]
1 | CC(=O)N1[C@H](C)CN(c2cc(-n3nc(Nc4ccc(NC(=O)NC(C)(C)C)cc4)nc3N)ccn2)C[C@@H]1C [Compound 108] | < 50 | < 50 |  | 
2 | CC(=O)N1[C@H](C)CN(c2cc(-n3nc(Nc4ccc(NC(=O)OC(C)(C)C)cc4)nc3N)ccn2)C[C@@H]1C [Compound 109] | < 50 | < 50 |  | 
3 | CC(=O)N1[C@H](C)CN(c2cc(-n3nc(Nc4ccc(NC(=O)CCC(C)C)cc4)nc3N)ccn2)C[C@@H]1C [Compound 110] | < 50 | < 50 |  | 
4 | CC(=O)N1[C@H](C)CN(c2cc(-n3nc(Nc4ccc(NC(=O)CC(C)C)cc4)nc3N)ccn2)C[C@@H]1C [Compound 111] | < 50 | < 50 |  | 
5 | CC(=O)Nc1ccc(Nc2nc(N)n(-c3cc(N4C[C@@H](C)N(C(C)=O)[C@@H](C)C4)ncn3)n2)cc1 [Compound 112] | < 50 | < 50 |  | 
6 | CCOC(=O)N1CCN(c2ccc(Nc3nc(N)n(-c4ccnc(N5C[C@@H](C)N(C(C)=O)[C@@H](C)C5)c4)n3)cc2)CC1 [Compound 113] | < 50 | < 50 |  | 
7 | CC(=O)N1[C@H](C)CN(c2cc(-n3nc(Nc4ccc(N(C)C(=O)OC(C)(C)C)cc4)nc3N)ncn2)C[C@@H]1C [Compound 114] | < 50 | < 50 |  | 
8 | CC(=O)N1CCCN(c2cc(-n3nc(Nc4ccc(N(C)C(=O)OC(C)(C)C)cc4)nc3N)ncn2)CC1 [Compound 115] | < 50 | < 50 |  | 
9 | CNc1ccc(Nc2nc(N)n(-c3cc(N4C[C@@H](C)N(C(C)=O)[C@@H](C)C4)ncn3)n2)cc1 [Compound 116] | < 50 | < 50 |  | 
10 | CNc1ccc(Nc2nc(N)n(-c3cc(N4CCCN(C(C)=O)CC4)ncn3)n2)cc1 [Compound 117] | < 50 | < 50 |  | 
11 | CCCOC(=O)N(C)c1ccc(Nc2nc(N)n(-c3cc(N4C[C@@H](C)N(C(C)=O)[C@@H](C)C4)ncn3)n2)cc1 [Compound 118] | < 50 | < 50 |  | 
12 | CC(=O)N1[C@H](C)CN(c2cc(-n3nc(Nc4ccc(N(C)C(=O)OC(C)C)cc4)nc3N)ncn2)C[C@@H]1C [Compound 119] | < 50 | < 50 |  | 
13 | CC(=O)N1[C@H](C)CN(c2cc(-n3nc(Nc4ccc(N(C)C(=O)OCC(C)C)cc4)nc3N)ncn2)C[C@@H]1C [Compound 120] | < 50 | < 50 |  | 
14 | CC(=O)N1[C@H](C)CN(c2cc(-n3nc(Nc4ccc(N(C)C(=O)Oc5ccc(C)cc5)cc4)nc3N)ncn2)C[C@@H]1C [Compound 121] |  |  | < 50 | < 50
15 | CC(C)(C)OC(=O)N1CCN(c2ccc(Nc3nc(N)n(-c4cc(N5CCCN(C(=O)CC#N)CC5)ncn4)n3)cc2)CC1 [Compound 122] | < 50 | < 50 |  | 
16 | N#CCC(=O)N1CCCN(c2cc(-n3nc(Nc4ccc(N5CCNCC5)cc4)nc3N)ncn2)CC1 [Compound 123] | < 50 | < 50 |  | 
17 | CCOC(=O)N1CCN(c2ccc(Nc3nc(N)n(-c4cc(N5CCCN(C(=O)CC#N)CC5)ncn4)n3)cc2)CC1 [Compound 124] | < 50 | < 50 |  | 
18 | CCCOC(=O)N1CCN(c2ccc(Nc3nc(N)n(-c4cc(N5CCCN(C(=O)CC#N)CC5)ncn4)n3)cc2)CC1 [Compound 125] | < 50 | < 50 |  | 
19 | COC(=O)N(C)c1ccc(Nc2nc(N)n(-c3cc(N4CCCN(C(C)=O)CC4)ncn3)n2)cc1 [Compound 126] | < 50 | < 50 |  | 
20 | CCOC(=O)N(C)c1ccc(Nc2nc(N)n(-c3cc(N4CCCN(C(C)=O)CC4)ncn3)n2)cc1 [Compound 127] | < 50 | < 50 |  | 
21 | CC(=O)N1[C@H](C)CN(c2cc(-n3nc(Nc4ccc(N5CCN(C(=O)OCC(C)C)CC5)cc4)nc3N)ccn2)C[C@@H]1C [Compound 128] | < 50 | < 50 |  | 
22 | CCCOC(=O)N(C)c1ccc(Nc2nc(N)n(-c3cc(N4CCCN(C(C)=O)CC4)ncn3)n2)cc1 [Compound 129] | < 50 | < 50 |  | 
23 | CC(=O)N1CCCN(c2cc(-n3nc(Nc4ccc(N(C)C(=O)OC(C)C)cc4)nc3N)ncn2)CC1 [Compound 130] | < 50 | < 50 |  | 
